The values that follow come from patent US6875743B1, “Cell adhesion inhibitors” (Biogen, Inc., priority 1996, dated 2005).

Each structure is given as a SMILES string. Numbered stars: 1 amine (or outer) side, 2 acyl side, 3 side chain; on linkers, the order of the positions; unused ones are H or OH. Square brackets hold non-standard residues; d marks the D form. Peptide text beside a SMILES is read from it. * marks the point of attachment. X2 = Cc1ccccc1NC(=O)Nc1ccc(CN*)cc1; X5 = COc1cc(CC(=O)[*:2])ccc1N[*:1]; X1 = O=C(Cc1ccc(N[*:1])cc1)[*:2]; Tic = O=C(O)[CH]1Cc2ccccc2CN1; Chg = N[CH](C(=O)O)C1CCCCC1; Nva = CCC[CH](N)C(=O)O; PhAc = O=C(Cc1ccccc1)*; Boc = CC(C)(C)OC(=O)*; CO = O=C([*:1])[*:2]; NHPh = c1ccc(N*)cc1

This assay deals with T1, VLA4 (Homo sapiens, UniProt P05556+P13612).
T1 construct: endogenous in cells; host or cells: Ramos cells
T1 sequence (P13612 34-1032): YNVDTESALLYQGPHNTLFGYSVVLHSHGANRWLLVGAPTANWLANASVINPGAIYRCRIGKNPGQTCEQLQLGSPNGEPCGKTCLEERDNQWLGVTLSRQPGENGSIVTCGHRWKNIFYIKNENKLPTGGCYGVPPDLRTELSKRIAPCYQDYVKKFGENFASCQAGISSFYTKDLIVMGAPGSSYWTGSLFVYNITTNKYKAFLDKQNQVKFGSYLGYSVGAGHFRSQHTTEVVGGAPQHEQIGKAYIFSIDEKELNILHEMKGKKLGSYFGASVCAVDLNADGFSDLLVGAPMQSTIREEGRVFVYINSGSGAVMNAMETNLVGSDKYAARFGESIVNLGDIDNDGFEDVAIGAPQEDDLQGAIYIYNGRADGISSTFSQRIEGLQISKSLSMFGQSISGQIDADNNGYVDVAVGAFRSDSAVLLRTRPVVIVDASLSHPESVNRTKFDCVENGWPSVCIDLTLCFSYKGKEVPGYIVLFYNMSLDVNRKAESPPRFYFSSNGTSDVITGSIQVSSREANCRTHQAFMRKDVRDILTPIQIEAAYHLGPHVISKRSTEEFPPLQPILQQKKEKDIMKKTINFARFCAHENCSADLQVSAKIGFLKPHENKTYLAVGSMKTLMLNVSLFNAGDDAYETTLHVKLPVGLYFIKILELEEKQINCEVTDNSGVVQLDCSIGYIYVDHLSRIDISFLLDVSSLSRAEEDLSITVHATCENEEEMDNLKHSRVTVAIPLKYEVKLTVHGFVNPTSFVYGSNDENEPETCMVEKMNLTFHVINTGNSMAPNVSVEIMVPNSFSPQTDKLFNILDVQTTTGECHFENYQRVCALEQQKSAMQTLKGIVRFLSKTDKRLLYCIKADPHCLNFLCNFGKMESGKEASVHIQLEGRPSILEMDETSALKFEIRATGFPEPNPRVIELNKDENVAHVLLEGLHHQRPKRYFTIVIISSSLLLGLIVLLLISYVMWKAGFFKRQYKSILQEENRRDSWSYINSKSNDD
T1 sequence (P05556 21-798): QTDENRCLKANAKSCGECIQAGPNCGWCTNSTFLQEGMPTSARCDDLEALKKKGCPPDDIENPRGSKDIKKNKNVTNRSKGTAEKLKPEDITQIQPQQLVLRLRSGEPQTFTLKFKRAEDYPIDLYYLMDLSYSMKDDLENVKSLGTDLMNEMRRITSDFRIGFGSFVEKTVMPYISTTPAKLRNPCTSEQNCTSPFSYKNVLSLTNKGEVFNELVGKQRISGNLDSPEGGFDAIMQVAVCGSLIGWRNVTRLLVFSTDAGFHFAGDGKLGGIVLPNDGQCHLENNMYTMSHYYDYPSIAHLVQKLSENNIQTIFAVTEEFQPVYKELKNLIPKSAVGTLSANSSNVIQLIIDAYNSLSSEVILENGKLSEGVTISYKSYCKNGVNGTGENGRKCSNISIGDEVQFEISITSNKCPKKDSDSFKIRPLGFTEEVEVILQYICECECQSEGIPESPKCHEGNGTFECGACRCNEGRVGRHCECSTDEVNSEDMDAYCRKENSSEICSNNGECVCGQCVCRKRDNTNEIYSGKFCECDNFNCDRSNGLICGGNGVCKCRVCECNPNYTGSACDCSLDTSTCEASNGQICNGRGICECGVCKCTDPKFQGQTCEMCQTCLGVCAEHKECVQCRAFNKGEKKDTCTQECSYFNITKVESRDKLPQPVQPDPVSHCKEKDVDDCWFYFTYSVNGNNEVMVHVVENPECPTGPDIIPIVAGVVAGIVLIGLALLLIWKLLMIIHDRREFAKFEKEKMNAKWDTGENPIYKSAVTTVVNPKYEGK
Description: Inhibition of VLA4-dependent adhesion to BSA-CS1. The class given is cell-based. Conditions: binding of BCECF-labelled Ramos cells to BSA-CS1 coated wells, 2 mM MnCl2; read-out: IC50. The text has this:
For example, the cell adhesion inhibitory activity of these compounds may be measured by determining the concentration of inhibitor required to block the binding of VLA-4-expressing cells to fibronectin- or CS1-coated plates. In this assay microtiter wells are coated with either fibronectin (containing the CS-1 sequence) or CS-1. If CS-1 is used, it must be conjugated to a carrier protein, such as bovine serum albumin, in order to bind to the wells. Once the wells are coated, varying concentrations of the test compound are then added together with appropriately labelled, VLA-4-expressing cells. Alternatively, the test compound may be added first and allowed to incubate with the coated wells prior to the addition of the cells. The cells are allowed to incubate in the wells for at least 30 minutes. Following incubation, the wells are emptied and washed. Inhibition of binding is measured by quantitating the fluorescence or radioactivity bound to the plate for each of the various concentrations of test compound, as well as for controls containing no test compound.
VLA-4-expressing cells that may be utilized in this assay include Ramos cells, Jurkat cells, A375 melanoma cells, as well as human peripheral blood lymophocytes (PBLs). The cells used in this assay may be fluorescently or radioactively labelled.
This assay was used to assess the potency of VLA4-directed inhibitory compounds of this invention.
We dissolved BSA-SMCC (Pierce Chemical, Rockford, Ill.; Catalog #77115) in H2O at a concentration of 10 mg/mL. [SEQ ID NO:4]: […](“Cys-Tyr-CS1 peptide”), which we synthesized by conventional solid phase chemistry and purified by HPLC, was dissolved in 10 mM HEPES pH 5, 50 mM NaCl and 0.1 mM EDTA also at a concentration of 10 mg/mL. We then mixed 500 μL of BSA-SMCC, 250 μL of Cys-Tyr-CS1 peptide and 75 μL of 1 mM HEPES pH 7.5 and allowed the conjugation reaction to proceed for 30 minutes. We stopped the reaction by adding 1 μL of beta-mercaptoethanol. Samples were analyzed for cross-linking by SDS-PAGE.
We coated the wells of a Linbro titertek polystyrene 96-well flat bottom plate (Flow Laboratories, Maclean, Va.; catalog #76-231-05) with 100 μL of the above-described BSA-CS1 solution diluted to 1 μg/mL in 0.05 M NaHCO3 (15 mM NaHCO3, 35 mM Na2CO3) pH 9.2. Some wells were not coated with CS1 in order to assess non-specific cell binding (NSB). The plate was then incubated overnight at 4° C.
Following this incubation, the contents of the wells were removed by inverting and blotting the plate. All of the wells were then blocked with 100 μL of 1% BSA in PBS, 0.02% NaN3, for a minimum of one hour at room temperature.
Ramos cells are grown, maintained and labelled in RPMI 1640 culture medium containing 1% BSA. Just prior to running the assay, we added 2′,7′-bis-(2-carboxyethyl)-5 (and -6) carboxyfluorescein acetoxymethyl ester (“BCECF-AM”; Molecular Probes Inc., Eugene, Oreg.; catalog #B-1150) to a final concentration of 2 μM to a culture of Ramos cells (4×10^6 cells/mL). We incubated the cells for 20 minutes at 37° C.
Following labelling, the cells were washed twice in assay buffer (24 mM TRIS, 137 mM NaCl, 2.7 mM KCl, pH 7.4, containing 0.1% BSA and 2 mM glucose) to remove any cations originating from the culture medium. The cells were then resuspended in assay buffer to 4×10^6 cells/mL and 2 mM MnCl2 was added to upregulate VLA4 on the surface of the cells.
Immediately prior to running the assay, we removed the BSA blocking solution from the 96-well plates and washed the wells with 100 μL of assay buffer. We then added to each well 25 μL of test cell adhesion inhibitory compound at 2× the final concentration and 25 μL of the labelled Ramos cells. […] Each concentration of compound was tested in triplicate. The compound and cells are allowed to incubate for 30 minutes at room temperature.
Usually IC50 stands for the concentration at which inhibition is half-maximal. Regarding `Cc1ccccc1NC(=O)Nc1ccc(CC(=O)NC(CC(C)C)C(=O)NC(CC(=O)O)C(=O)NC(CO)C(N)=O)cc1` (stereo not shown) [Compound 296], the IC50 was less than 50 nM.
To `CC(C)C[C@H](NC(=O)c1cc2ccccc2cn1)C(=O)NC(Cc1nnn[nH]1)C(=O)N[C@H](C(=O)O)C(C)C` (stereo partly shown) [Compound 10] belongs greater than 10000 nM; to `CC(C)C[C@H](NC(=O)c1cc2ccccc2cn1)C(=O)NC(CC(=O)NO)C(=O)N[C@H](C(=O)O)C(C)C` (stereo partly shown) [Compound 6], greater than 10000 nM.
For the compound `CC(C)C[C@H](NC(=O)c1csc(-c2ccncc2)n1)C(=O)N[C@@H](CC(=O)O)C(=O)N[C@H](C(=O)O)C(C)C` [Compound 376], the IC50 was greater than 10000 nM.
Under `COC(=O)C(CCSC)NC(=O)C(NC(=O)C(CC(=O)O)NC(=O)C(CC(C)C)NC(=O)OC(C)(C)C)C(C)C` (stereo not shown) [Compound 167] (Boc-LDVM-OMe; configuration not given here) stands greater than 10000 nM; under `CC(C)CC(NC(=O)C1Cc2ccccc2CN1)C(=O)NC(CC(=O)O)C(=O)O` (stereo not drawn) [Compound 23] (H-[Tic]-Leu-Asp-OH; configuration not given here), greater than 10000 nM.
Under `CCCC(NC(=O)C(CC(=O)O)NC(=O)C(CC(C)C)NC(=O)Cc1ccccc1)C(=O)NC` (stereo not drawn) [Compound 51] (PhAc-Leu-Asp-[Nva]-NHMe; configuration not given here) stands greater than 10000 nM.
To `CC(C)C(NC(=O)C(CC(=O)O)NC(=O)C(NC(=O)C1Cc2ccccc2CN1)C1CCCCC1)C(=O)O` (stereo not shown) [Compound 84] (H-[Tic][Chg]DV-OH; configuration not given here) belongs greater than 10000 nM.
Consider `COc1cc(CC(=O)NC(CCSC)C(=O)NC(CC(=O)O)C(=O)NC(C(=O)N2CCCC2C(=O)O)C(C)C)ccc1NC(=O)Nc1ccccc1` (stereo not shown) [Compound 2] ({NHPh-CO}-[X5]MDVP-OH; configuration not given here), for which the IC50 was less than 50 nM.
Under `Cc1ccccc1NC(=O)Nc1ccc(CC(=O)N[C@@H](CCC(N)=O)C(=O)N[C@@H](CC(=O)O)C(=O)N[C@@H](CCC(=O)O)C(N)=O)cc1` [Compound 301] stands less than 50 nM; under `CCC(C)C(NC(=O)C(CC(=O)O)NC(=O)C(NC(=O)C1CCCN1)C(C)C)C(=O)NCc1ccc(NC(=O)Nc2ccccc2C)cc1` (stereo not shown) [Compound 343] (H-PVDI-X2; configuration not given here), greater than 10000 nM.
To `COC(=O)C1CCCN1C(=O)C(NC(=O)C(CC(=O)O)NC(=O)C(CC(C)C)NC(=O)Cc1ccccc1)C(C)C` (stereo not shown) [Compound 35] belongs 50 to 10000 nM; to `Cc1ccccc1NC(=O)Nc1ccc(CC(=O)N[C@H](C(=O)N[C@@H](CC(=O)O)C(=O)N[C@@H](CCC(=O)O)C(N)=O)[C@@H](C)O)cc1` [Compound 256], less than 50 nM.
To `Cc1ccccc1NC(=O)Nc1ccc(CC(=O)N[C@@H](CC(C)C)C(=O)N[C@@H](CC(=O)O)C(=O)N[C@H](CC(C)C)C(N)=O)cc1` [Compound 233] belongs less than 50 nM.
As for `CC(C)[C@H](NC(=O)[C@H](CC(=O)O)NC(=O)C(C)(C)NC(=O)c1cc2ccccc2cn1)C(=O)O` [Compound 82], the IC50 was greater than 10000 nM.
As to `CSCC[C@H](NC(=O)[C@H](CC(=O)O)NC(=O)[C@H](CO)NC(=O)Cc1ccc(NC(=O)Nc2ccccc2C)cc1)C(N)=O` [Compound 281], the IC50 was less than 50 nM.
With `COC(=O)[C@@H](NC(=O)[C@H](CC(=O)O)N1CCC(NC(=O)CCc2ccc(O)cc2)C1=O)C(C)C` (stereo partly shown) [Compound 335], the IC50 was greater than 10000 nM.
Regarding `Cc1ccccc1NC(=O)Nc1ccc(CC(=O)N[C@@H](CCC(N)=O)C(=O)N[C@@H](CC(=O)O)C(=O)N[C@H](C(N)=O)[C@@H](C)O)cc1` [Compound 302], the IC50 is less than 50 nM.
To `Cc1ccccc1NC(=O)Nc1ccc(CC(=O)N[C@@H](CCC(=O)O)C(=O)N[C@@H](CC(=O)O)C(=O)N[C@H](CC(C)C)C(N)=O)cc1` [Compound 266] belongs less than 50 nM; to `Cc1ccccc1NC(=O)Nc1ccc(CC(=O)N[C@H](C(=O)N[C@@H](CC(=O)O)C(=O)N[C@H](C(N)=O)C(C)C)[C@@H](C)O)cc1` [Compound 254], less than 50 nM; to `CNC(=O)C(C)(C)NC(=O)[C@H](CC(=O)O)NC(=O)[C@H](CC(C)C)NC(=O)c1ccc2ccccc2n1` [Compound 185], greater than 10000 nM.
`Cc1ccccc1NC(=O)Nc1ccc(CC(=O)N[C@@H](CO)C(=O)N[C@@H](CC(=O)O)C(=O)N[C@@H](Cc2c[nH]c3ccccc23)C(N)=O)cc1` [Compound 284]: the IC50 was less than 50 nM.
Under `CSCC[C@H](NC(=O)[C@H](CC(=O)O)NC(=O)[C@@H](NC(=O)Cc1ccc(NC(=O)Nc2ccccc2C)cc1)[C@@H](C)O)C(N)=O` [Compound 258] stands less than 50 nM; under `Cc1ccccc1NC(=O)Nc1ccc(CC(=O)N2CCC[C@H]2C(=O)N[C@@H](CC(=O)O)C(=O)N[C@H](CC(C)C)C(N)=O)cc1` [Compound 244], less than 50 nM.
Regarding `CC(C)C[C@H](NC(=O)c1ccc2c(c1)OCO2)C(=O)N[C@@H](CC(=O)O)C(=O)N[C@H](C(=O)O)C(C)C` [Compound 406], the IC50 is greater than 10000 nM.
`Cc1ccccc1NC(=O)Nc1ccc(CC(=O)N[C@@H](CC(C)C)C(=O)N[C@@H](CCC(=O)O)C(=O)N[C@H](C(N)=O)C(C)C)cc1` [Compound 311]: the IC50 is less than 50 nM.
Turning to `Cc1ccccc1NC(=O)Nc1ccc(CC(=O)N[C@@H](CO)C(=O)N[C@@H](CC(=O)O)C(=O)N[C@H](CO)C(N)=O)cc1` [Compound 285], the IC50 was less than 50 nM.
Under `Cc1ccccc1NC(=O)Nc1ccc(CC(=O)N[C@@H](CO)C(=O)N[C@@H](CC(=O)O)C(=O)N[C@@H](CC(=O)O)C(N)=O)cc1` [Compound 275] stands less than 50 nM.
For the compound `Cc1ccccc1NC(=O)Nc1ccc(CC(=O)N2CCC[C@H]2C(=O)N[C@@H](CCC(=O)O)C(=O)N[C@@H](CC(=O)O)C(N)=O)cc1` [Compound 312], the IC50 is less than 50 nM.
Consider `CC(C)C[C@H](NC(=O)c1cccnc1Sc1ccccc1)C(=O)N[C@@H](CC(=O)O)C(=O)N[C@H](C(=O)O)C(C)C` [Compound 373], for which the IC50 is greater than 10000 nM.
Turning to `Cc1ccccc1NC(=O)Nc1ccc(CC(=O)N[C@@H](CO)C(=O)N[C@@H](CC(=O)O)C(=O)N[C@@H](CC(C)C)C(N)=O)cc1` [Compound 276], the IC50 is less than 50 nM.
Under `CC(C)CC(NC(=O)C1Cc2ccccc2CN1)C(=O)NC(CC(=O)O)C(=O)NC(C(=O)N1CCCC1C(=O)O)C(C)C` (stereo not shown) [Compound 33] (H-[Tic]LDVP-OH; configuration not given here) stands greater than 10000 nM.
Take `Cc1ccccc1NC(=O)Nc1ccc(CC(=O)N[C@H](C(=O)N[C@@H](CC(=O)O)C(=O)N[C@H](CO)C(N)=O)[C@@H](C)O)cc1` [Compound 262]: the IC50 is less than 50 nM.
`CCC(C)C(NC(=O)C(CC(=O)O)NC(=O)C(CC(C)C)NC(=O)C1CCc2ccccc2N1)C(=O)NC` (stereo not shown) [Compound 58]: the IC50 is 50 to 10000 nM.
To `CCCc1ccc(C(=O)N[C@@H](CC(C)C)C(=O)N[C@@H](CC(=O)O)C(=O)N[C@H](C(=O)O)C(C)C)cc1` [Compound 374] belongs greater than 10000 nM; to `CC(C)C[C@H](NC(=O)Cc1ccc(NC(=O)Nc2ccccc2)cc1)C(=O)N[C@@H](CC(=O)O)C(=O)N[C@H](C(=O)N1CCC[C@H]1C(N)=O)C(C)C` [Compound 208] ({NHPh-CO}-[X1]LDVP-NH2), less than 50 nM; to `COc1ccc2cc(C(C)C(=O)N[C@@H](CC(C)C)C(=O)N[C@@H](CC(=O)O)C(=O)N[C@H](C(=O)O)C(C)C)ccc2c1` (stereo partly shown) [Compound 394], greater than 10000 nM.
